In patent US6025365A, “Chelerythrine and radiation combined tumor therapy” (Arch Development Corp., priority 1997, dated 2000):
pIC50: −log10 of the molar value.

How the values were obtained:
WEHI-231 JM cells [1] = assay: Viability by PI staining and FACS, WEHI-231 JM; type: cell-based, murine; conditions: Mus musculus, WEHI231, 24 hours
Protocol: (§1) FIG. 11B. WEHI-231 JM and OE cells are equally sensitive to inhibition of sphingosine kinase and exogenous ceramide. Cells were treated with increasing concentrations of C2-ceramide or DL-threo-dihydrosphingosine--apotent inhibitor of sphingosine kinase. Viability was assayed using PI staining and FACS analysis 24 hours after treatment.
(§2) For viability staining, 2.5-3.5×10^5 cells were treated with varying concentrations of C2-ceramide, irradiation, or both.
(§3) In order to address the question of whether the resistance of the OE subline was due, in part, to alterations in ceramide metabolites or targets, three studies were performed. […] Both cell lines were equally susceptible to the effects of sphingosine kinase inhibition and the resulting […] in ceramide. […] Thus the radioresistance can be attributed to the lack of sphingomyelinase activation and the subsequent decreased ceramide production following irradiation.

WEHI-231 OE cells [2] = assay: Viability by PI staining and FACS, WEHI-231 OE; type: cell-based, murine; conditions: Mus musculus, WEHI231, 24 hours
Protocol: as §1, §2, §3

WEHI-231 JM cells [3] = assay: Intracellular ceramide accumulation in WEHI-231 JM cells; type: cell-based, murine; conditions: within 24 hours
Protocol: Quantitation of ceramide by diacylglycerol kinase was similar to that described by Dressler and Kolesnick (1990). After irradiation, lipids were extracted and resuspended by bath sonication in 20 μl of 7.5% n-octyl-β-D-glucopyranoside, 5 mM cardiolipin, 1 mM DETAPAC. Seventy μl of a reaction mix was added to give a final concentration of 0.05M imidazole/HCl pH 6.6, 0.05M NaCl, 12.5 mM MgCl2, 1 mM EGTA and DAG kinase at a concentration of 0.7 U/ml. The reaction was started by the addition of 10 μl of [γ-^32 P]ATP (1.0 μCi/tube) in 5 mM ATP and incubated at room temperature for 30 min and stopped by the extraction of lipids with 450 μl of CHCl3 :CH3 OH (1:2) and 20 μl of 1% HClO4. The monophase was mixed and after 10 min., 150 μl CHCl3 and 150 μl of 1% HClO4 were added and the tubes vortexed and centrifuged at 5000 g for 5 min. The lower organic phase was washed twice with 1% HClO4 and then dried in a Speed Vac Apparatus. The phosphorylation products, ceramide-1-phosphate and phosphatidic acid (fom DAG) were resolved on a 10 cm×10 cm LH P-K TLC plate (Whatman). Data was calculated as pmoles of ceramide/10^6 cells by scintillation counting. In Example 6, data (mean +/- SD) represent at least 4 independent studies in which *p<002 compared with unirradiated controls. […]

WEHI-231 OE cells [4] = assay: Resistance of selected WEHI-231 OE variants to n-oleoylethanolamine; type: cell-based, murine; conditions: 75 μM n-oleoylethanolamine
Protocol: WEHI-231 JM cells (1×10^7) were treated with two successive treatments of 100 μM and 125 μM N-oleoylethanolamine (Matreya), a potent inhibitor of ceramidase (Coroneos et al., 1995; Ambrosini et al., 1994). Cells were grown in media containing n-oleoylethanolamine for 96 hours. Serial dilutions isolated individual resistant cells and were expanded after each selection. Every two weeks cells were re-selected with 125 μM n-oleoethanolamine.

HL-60 cells = conditions: literature reports; cited from earlier work
WEHI-231 cells [5] = conditions: Chmura et al., 1996a; cited from earlier work
WEHI-231 cells [6] = assay: Sphingomyelin mass by lipid extraction / TLC; type: cell-based, murine; conditions: 250 nM calphostin C, 2 hours
Protocol: (§4) FIG. 7A. Inhibition of PKC causes an increase in ceramide production through the activation of a neutral sphingomyelinase and decreases in sphingomyelin levels. Ceramide production was quantitated using the DAG kinase assay for WEHI-231 JM cells and total lipid extraction was used to assay sphingomyelin mass. Following addition of 10 μM chelerythrine, cells were lysed at the appropriate time points as described herein. Each data point represents the average percentage change in ceramide or sphingomyelin generation from baseline derived from at least 8 independent studies for all time points with the exception of those marked with * (n=4). Standard deviations depicted by error bars.
(§5) FIG. 7B. […] Ceramide production and sphingomyelin mass was quantitated identical to that for chelerythrine. Cells were lysed 2 hours following the addition of 250 nM calphostin C. […]
Cells were prelabeled with [^3 H] palmitate (10 μCi/ml) for 24 hours to isotopic equilibrium in 15 ml glass tubes to minimize changes in cellular ceramide and sphingomyelin due to handling and changing of media (Borchardt et al., 1994). […] Autoradiographs were quantitated using an Epson 1200 c 30 bit scanner and NIH Image software (public domain program developed at the NIH and available from the Internet via FTP from zippy.nimh.nih.gov). […]

WEHI-231 cells [7] = assay: Apoptosis / cell death of WEHI-231 (propidium iodide FACS, gel electrophoresis, DAPI); type: cell-based, murine; conditions: chelerythrine 10 μM or calphostin C 250 nM
Protocol: Cells undergoing apoptosis also shrink in size.
Cells, 5×10^5, were centrifuged at 1000 rpm and resuspended in approximately 100 μl cell culture media. The cell suspension was then mixed with 100 μl of DAPI (4',6-iamidino-2-phenylindole, Sigma D9542, 1 μg/ml in PBT (PBS+1% Triton X-100)). One drop of this mixture was placed on a microslide with a coverslip. The cells were viewed by fluorescence microscopy using an Olympus BX-40 microscope with a 100 Watt Mercury lamp, a 16 or 40 X Fluorite objective, N.A. 0.75, (Leco #1-UB527) and a UV filter cube (ex 330-385 nm, em 420 nm, wide band pass, Leco #U-M536). Images were photographed using an Optronics cooled low-light video camera (Leco #DEI-470TB) to which was attached a 2X coupler (Leco #HR200-CMT). The image was saved to a digital file at 72 dpi.
DNA degradation was assessed as previously described (Gottschalk et al., 1993; 1994). Briefly, following treatment in 100 mm plates or 24 well plates, cells were collected and lysed in 0.5 ml lysis buffer (0.6% SDS+10 mM EDTA, pH 7.0). NaCl was added to a final concentration of 1M, mixed by inversion, incubated for 12 hours at 4° C. and then spun at 14,000 g for 30 minutes. Samples were treated with chloroform (1:1) and precipitated in ethanol prior to electrophoresis in a 3% agarose gel and visualized with ethidium bromide.

protein kinase C (PKC) = conditions: cited from earlier work
WEHI-231 cells [8] = assay: Ceramide production by DAG kinase assay; type: cell-based, murine; conditions: 250 nM calphostin C, 2 hours
Protocol: as §4, §5
Quantitation of ceramide by diacylglycerol kinase was similar to that described by Dressler and Kolesnick (1990). […] Data was calculated as pmoles of ceramide/10^6 cells by scintillation counting. […]
In order to test whether PKC inhibition alters ceramide production, the DAG kinase assay was used to quantify intracellular ceramide following chelerythrine and calphostin C treatment (Dressler and Kolesnick, 1990; Preiss et al., 1986). […]

cyclic-AMP kinase (PKA) = conditions: cited from earlier work

## CCCCCCCCCCCCCCC[C@H](O)[C@@H](N)CO (relative stereo) [DL-threo-dihydrosphingosine]
WEHI-231 JM cells [1]
  pIC50: 5.52
WEHI-231 OE cells [2]
  pIC50: 5.52

## CCCCCCCC/C=C\CCCCCCCC(=O)NCCO [N-oleoylethanolamine]
WEHI-231 JM cells [3]
  intracellular accumulation of ceramide: rose within 24 hours in a dose dependent manner
WEHI-231 OE cells [4]
  resistance to apoptosis vs parental line: 3 fold

## CN[C@@H]1C[C@H]2O[C@@](C)([C@@H]1OC)n1c3ccccc3c3c4c(c5c6ccccc6n2c5c31)C(=O)NC4 [staurosporine]
HL-60 cells
  apoptosis in HL-60 cells: both to antagonize (Cotter et al., 1992) and to initiate apoptosis in HL-60 cells

## Calphostin C
WEHI-231 cells [5]
  interaction with exogenous ceramide analogs in inducing apoptosis: act in synergy with exogenous ceramide analogs to induce apoptosis
WEHI-231 cells [6]
  sphingomyelin levels: decreased sphingomyelin levels
WEHI-231 cells [7]; 24 hours
  cell death: greater than 90%
WEHI-231 cells [7]
  DNA laddering and nuclear condensation: DNA laddering and nuclear condensation
Protein kinase C (PKC)
  specificity at blocking PKC vs staurosporin and H7: at least 30 fold
WEHI-231 cells [8]
  ceramide production: induced cerarnide production
cyclic-AMP kinase (PKA); at concentrations used for the inventors' studies
  inhibition of PKA: do not appear to inhibit other kinases
cyclic-AMP kinase (PKA)
  pIC50: 4.30
